Test results from ChEMBL document CHEMBL1201862, “PubChem BioAssay data set” (2004).
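The compound was tested at five concentrations on cells cultured in 96-well plates, with a 48-hour exposure period. Here, GI50 denotes the concentration required for 50% inhibition of growth.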 Activity calls are given as the source filed them. No stated cut-off is given here; in the data, active = GI50 up to about 1.1 µM and inactive = higher.

Legend:
Assay in all cases: inhibition of tumour cell growth, NCI panel, 48 h
[1] = tested on: 786-0
[2] = tested on: CAKI-1
[3] = tested on: HCT-15
[4] = tested on: HT-29
[5] = tested on: KM12
[6] = tested on: LOX IMVI
[7] = tested on: M14
[8] = tested on: MDA-MB-435
[9] = tested on: NCI-H460
[10] = tested on: NCI-H522
[11] = tested on: NCI/ADR-RES
[12] = tested on: OVCAR-5
[13] = tested on: SF-539
[14] = tested on: SK-MEL-28
[15] = tested on: SNB-75
[16] = tested on: HOP-62
[17] = tested on: HOP-92
[18] = tested on: SN12C
[19] = tested on: UACC-62
[20] = tested on: MCF7

Row | SMILES | GI50 [1] | GI50 [2] | GI50 [3] [µM] | GI50 [4] | GI50 [5] | GI50 [6] | GI50 [7] | GI50 [8] | GI50 [9] | GI50 [10] | GI50 [11] | GI50 [12] | GI50 [13] | GI50 [14] | GI50 [15] | GI50 [16] | GI50 [17] | GI50 [18] | GI50 [19] | GI50 [20]
1 | C=Cc1cc2c(cc1O)CC[C@@H]1[C@@H]2CC[C@]2(C)[C@@H](O)CC[C@@H]12 | 4.13 µM (inactive) | 7.94 µM (inactive) | 3.95 | 15.3 µM (inactive) | 5.11 µM (inactive) | 8.63 µM (inactive) | 5.4 µM (inactive) | 1.09 µM (active) | 3.94 µM (inactive) | 4.66 µM (inactive) | 1.77 µM (inactive) | 21.3 µM (inactive) | 2.06 µM (inactive) | 4.06 µM (inactive) | 5.38 µM (inactive) | – | – | – | – | –
2 | CN1C(=O)CN2C(Cl)(Cl)C2(c2ccccc2)c2cc(Cl)ccc21 (configuration not stated) | – | > 100 µM (inactive) | > 100 | 67.5 µM (inactive) | 56.5 µM (inactive) | > 100 µM (inactive) | > 100 µM (inactive) | – | 96.2 µM (inactive) | 31.3 µM (inactive) | – | > 100 µM (inactive) | – | > 100 µM (inactive) | – | > 100 µM (inactive) | 13.5 µM (inactive) | > 100 µM (inactive) | > 100 µM (inactive) | –
3 | OCc1nnn2c1CCC2 | – | – | > 100 | > 100 µM (inactive) | > 100 µM (inactive) | > 100 µM (inactive) | > 100 µM (inactive) | – | > 100 µM (inactive) | > 100 µM (inactive) | – | > 100 µM (inactive) | > 100 µM (inactive) | > 100 µM (inactive) | > 100 µM (inactive) | > 100 µM (inactive) | > 100 µM (inactive) | > 100 µM (inactive) | > 100 µM (inactive) | –
4 | CC12CC3(C)CC(C)(C1)CC(N=[N+]=[N-])(C2)C3 | > 100 µM (inactive) | > 100 µM (inactive) | – | > 100 µM (inactive) | > 100 µM (inactive) | > 100 µM (inactive) | > 100 µM (inactive) | – | > 100 µM (inactive) | > 100 µM (inactive) | – | > 100 µM (inactive) | > 100 µM (inactive) | > 100 µM (inactive) | > 100 µM (inactive) | > 100 µM (inactive) | > 100 µM (inactive) | > 100 µM (inactive) | > 100 µM (inactive) | –
5 | Clc1ccc(CCc2ccncn2)c(Cl)c1 | > 100 µM (inactive) | 50.2 µM (inactive) | 79.6 | > 100 µM (inactive) | 63 µM (inactive) | > 100 µM (inactive) | > 100 µM (inactive) | – | > 100 µM (inactive) | 37.7 µM (inactive) | – | > 100 µM (inactive) | > 100 µM (inactive) | > 100 µM (inactive) | 68.5 µM (inactive) | > 100 µM (inactive) | 54.6 µM (inactive) | > 100 µM (inactive) | 53.2 µM (inactive) | –
6 | S=c1sc2cscc2s1 | 19.8 µM (inactive) | 16.8 µM (inactive) | 34 | 44.1 µM (inactive) | 17.6 µM (inactive) | 39.8 µM (inactive) | 19.1 µM (inactive) | – | 24.1 µM (inactive) | 19.3 µM (inactive) | – | 69.2 µM (inactive) | 23 µM (inactive) | 21.9 µM (inactive) | 16.7 µM (inactive) | 32.8 µM (inactive) | 24.8 µM (inactive) | 32.6 µM (inactive) | 18.2 µM (inactive) | –
7 | CC(=O)OCC1=C(COC(C)=O)C(=O)c2c(O)ccc(O)c2C1=O | – | 5.66 µM (inactive) | 10.4 | 11.7 µM (inactive) | 13.3 µM (inactive) | – | 5.3 µM (inactive) | – | – | 1.55 µM (inactive) | – | 16.4 µM (inactive) | 6.34 µM (inactive) | 4.9 µM (inactive) | 16.1 µM (inactive) | 21 µM (inactive) | 2.54 µM (inactive) | 10.4 µM (inactive) | 5.56 µM (inactive) | –
8 | CCN(CC)CCNCc1cc(Cl)cc2c1OCOC2 | – | > 10 µM (inactive) | > 10 | > 10 µM (inactive) | > 10 µM (inactive) | > 10 µM (inactive) | > 10 µM (inactive) | > 10 µM (inactive) | > 10 µM (inactive) | > 10 µM (inactive) | > 10 µM (inactive) | > 10 µM (inactive) | > 10 µM (inactive) | > 10 µM (inactive) | > 10 µM (inactive) | > 10 µM (inactive) | – | > 10 µM (inactive) | > 10 µM (inactive) | > 10 µM (inactive)
9 | Cc1[nH]c(=O)[nH]c(=O)c1/C=C/C(=O)NC(CO)C[S+]([O-])C[S+](C)[O-] (configuration not stated) | – | 4.93 µM (inactive) | 44.3 | 125 µM (inactive) | 18.4 µM (inactive) | 15.5 µM (inactive) | – | – | 16.6 µM (inactive) | 9.51 µM (inactive) | 24.8 µM (inactive) | 135 µM (inactive) | 13.9 µM (inactive) | 17.8 µM (inactive) | 7.18 µM (inactive) | 16.6 µM (inactive) | 9.73 µM (inactive) | 14.2 µM (inactive) | 12.5 µM (inactive) | 20.9 µM (inactive)
10 | CN(C)C(=S)/N=c1\ss/c(=N\S(=O)(=O)c2ccccc2)n1-c1ccccc1 | 30.4 µM (inactive) | > 100 µM (inactive) | 7.28 | 0.0522 µM (active) | 0.217 µM (active) | 4.06 µM (inactive) | 20.6 µM (inactive) | – | – | 0.0855 µM (active) | – | > 100 µM (inactive) | 19.7 µM (inactive) | 63.7 µM (inactive) | > 100 µM (inactive) | 22.9 µM (inactive) | 14.7 µM (inactive) | 33 µM (inactive) | 0.297 µM (active) | –
11 | CCn1cc(C(c2ccc(Cl)cc2)n2ccnc2)c2cc(Br)ccc21 (configuration not stated) | – | 13.7 µM (inactive) | 12.2 | 7.55 µM (inactive) | 11.4 µM (inactive) | 12.9 µM (inactive) | 13.3 µM (inactive) | 13.6 µM (inactive) | – | – | 12.6 µM (inactive) | 11.7 µM (inactive) | 18.7 µM (inactive) | – | 13.6 µM (inactive) | 14.4 µM (inactive) | 4.89 µM (inactive) | 22.8 µM (inactive) | 10.9 µM (inactive) | 10.1 µM (inactive)
12 | S=c1nc(Nc2ccc(Br)cc2)c2c3c(sc2[nH]1)CN(N1CCc2c(sc4[nH]c(=S)nc(Nc5ccc(Br)cc5)c24)C1)CC3 | 8.13 µM (inactive) | > 50 µM (inactive) | 22.5 | 15.5 µM (inactive) | 21.6 µM (inactive) | 8.67 µM (inactive) | 8.36 µM (inactive) | 15.2 µM (inactive) | 23.8 µM (inactive) | 12.8 µM (inactive) | > 50 µM (inactive) | 16 µM (inactive) | 29.3 µM (inactive) | 11.6 µM (inactive) | > 50 µM (inactive) | 17.5 µM (inactive) | – | 28.4 µM (inactive) | 15.1 µM (inactive) | 20.3 µM (inactive)
13 | O=C1C(c2ccc(C3=[N+]([O-])c4cc([N+](=O)[O-])ccc4C3=O)cc2)=[N+]([O-])c2cc([N+](=O)[O-])ccc21 | 58.9 µM (inactive) | > 10 µM (inactive) | > 10 | > 10 µM (inactive) | > 10 µM (inactive) | > 10 µM (inactive) | > 10 µM (inactive) | – | > 10 µM (inactive) | > 10 µM (inactive) | – | > 10 µM (inactive) | > 10 µM (inactive) | > 10 µM (inactive) | 36.2 µM (inactive) | 66.7 µM (inactive) | > 10 µM (inactive) | > 10 µM (inactive) | > 10 µM (inactive) | –
14 | O=C(Nc1nc2ncn(CCNCc3ccccc3)c2c(=O)[nH]1)c1ccccc1 | > 100 µM (inactive) | > 100 µM (inactive) | > 100 | > 100 µM (inactive) | > 100 µM (inactive) | > 100 µM (inactive) | > 100 µM (inactive) | – | > 100 µM (inactive) | > 100 µM (inactive) | – | > 100 µM (inactive) | > 100 µM (inactive) | > 100 µM (inactive) | 90.2 µM (inactive) | > 100 µM (inactive) | > 100 µM (inactive) | > 100 µM (inactive) | > 100 µM (inactive) | –
15 | CCC(=O)NC(OCC1(CC)COC1)(C(F)(F)F)C(F)(F)F | – | – | > 100 | > 100 µM (inactive) | > 100 µM (inactive) | > 100 µM (inactive) | > 100 µM (inactive) | > 100 µM (inactive) | > 100 µM (inactive) | > 100 µM (inactive) | – | > 100 µM (inactive) | > 100 µM (inactive) | > 100 µM (inactive) | > 100 µM (inactive) | > 100 µM (inactive) | – | > 100 µM (inactive) | > 100 µM (inactive) | > 100 µM (inactive)
16 | COc1ccc(C2C(N)=NCC2c2ccccn2)cc1 (configuration not stated) | > 100 µM (inactive) | > 100 µM (inactive) | – | > 100 µM (inactive) | > 100 µM (inactive) | > 100 µM (inactive) | > 100 µM (inactive) | – | > 100 µM (inactive) | > 100 µM (inactive) | – | > 100 µM (inactive) | > 100 µM (inactive) | > 100 µM (inactive) | > 100 µM (inactive) | > 100 µM (inactive) | > 100 µM (inactive) | > 100 µM (inactive) | > 100 µM (inactive) | –
17 | C1#Cc2ccccc2OCCOc2ccccc2C#Cc2ccccc2OCCOc2ccccc21 | 10.3 µM (inactive) | 17.7 µM (inactive) | > 100 | 66.5 µM (inactive) | 68.2 µM (inactive) | 16 µM (inactive) | 30.8 µM (inactive) | > 100 µM (inactive) | 24.9 µM (inactive) | 20.7 µM (inactive) | 29.4 µM (inactive) | 24 µM (inactive) | – | 70.8 µM (inactive) | – | 8.77 µM (inactive) | – | 30.7 µM (inactive) | > 100 µM (inactive) | > 100 µM (inactive)
